Read-outs that look alike come from different tables or passages of the source.
Tests used:
A549 cells = experiment: Annexin V FITC/PI flow cytometric analysis of apoptosis; details: 24 h, each agent at its IC50 (3a 91.35, 3e 176.23, 3g 46.60, 3i 83.59, cisplatin 23.89 μM)
Akt = Akt Colorimetric In-Cell ELISA, Akt inhibition in A549 cells; type: cell-based, human; details: 24 h; for IC50: A549 cell line, mean ± SD, triplicate, read-out: Akt inhibitory effect IC50
Method: The assay was performed in triplicate. IC50 data (μM) were expressed as mean ± SD.

[1] = test system: A549 human lung adenocarcinoma cells; experiment: MTT test, cytotoxicity on A549 cells; type: cell-based; details: triplicate, read-out: IC50 A549 cell line
Method: (§1) A549 and L929 cell lines were purchased from American Type Culture Collection (Manassas, VA, USA). Cells were cultured, and drug treatments were performed as previously explained.[46]
(§2) MTT assay was conducted as previously described[47] with slight modifications.[48] Cisplatin was used as a positive control. The assay was performed in triplicate. Half-maximal inhibitory concentration (IC50) data (μM) were expressed as mean ± SD.

[2] = test system: L929 mouse embryonic fibroblast cells; experiment: MTT test, cytotoxicity on L929 cells; type: cell-based; details: mean ± SD, triplicate, read-out: IC50 L929 cell line
Method: as §1, §2

With `N.N.[Cl][Pt][Cl]` [Cisplatin, reference compound] as the compound, how does the “early apoptosis (%)” value (A549 cells) read?
Its value is 3.61%.

And the “late apoptosis (%)” value (A549 cells)?
The value was 3.14%.

What about the “necrosis (%)” value (A549 cells) of the same compound?
Its value is 0.98%.

And the IC50 (Akt)?
Its IC50 is 8.09 ± 0.63 µM.

And the IC50 ([1]; mean ± SD)?
The IC50 was 23.9 ± 2.71 µM.

What does the source list for `NNC(=O)CSc1nc2cc(Cl)ccc2o1` [Compound 2, 2-[(5-Chlorobenzoxazol-2-yl)thio]acetohydrazide]?
IC50 ([1]; Homo sapiens, A549, mean ± SD): > 500 µM; IC50 [2]: > 500 µM; melting point: 159 to 161 °C

For `CN(C)c1ccc(C=NNC(=O)CSc2nc3cc(Cl)ccc3o2)cc1` [Compound 3a, N′-(4-Dimethylaminobenzylidene)-2-[(5-chlorobenzoxazol-2-yl)thio]acetohydrazide], which “early apoptosis (%)” value (A549 cells) is on record?
Its value is 11.22%.

What about the “late apoptosis (%)” value (A549 cells) of the same compound?
The value was 4.97%.

And the “necrosis (%)” value (A549 cells)?
Its value is 0.79%.

And the Akt inhibition (Akt; A549 cells, at 91.35 μM)?
The Akt inhibition was 35.40 ± 13.36%.

And the IC50 ([1]; Homo sapiens, A549, mean ± SD)?
Its IC50 is 91.4 ± 21.9 µM.

What about the IC50 [2] of the same compound?
The IC50 was greater than 500 µM.

And the melting point?
Its melting point is 197 to 199 °C.

Which IC50 ([1]; Homo sapiens, A549, mean ± SD) does the source give for `CCN(CC)c1ccc(C=NNC(=O)CSc2nc3cc(Cl)ccc3o2)cc1` [Compound 3b, N′-(4-Diethylaminobenzylidene)-2-[(5-chlorobenzoxazol-2-yl)thio]acetohydrazide] here?
Its IC50 is 410 ± 220 µM.

What about the IC50 [2] of the same compound?
The IC50 was greater than 500 µM.

What about the melting point of the same compound?
The melting point was 172 to 173 °C.

What does the source list for `O=C(CSc1nc2cc(Cl)ccc2o1)NN=Cc1ccc(N(CCCl)CCCl)cc1` [Compound 3c, N′-[4-(Bis(2-chloroethyl)amino)benzylidene]-2-[(5-chlorobenzoxazol-2-yl)thio]acetohydrazide]?
IC50 ([1]; Homo sapiens, A549, mean ± SD): > 500 µM; IC50 [2]: > 500 µM; melting point: 155 to 156 °C

Which IC50 ([1]; Homo sapiens, A549, mean ± SD) does the source give for `O=C(CSc1nc2cc(Cl)ccc2o1)NN=Cc1ccc([N+](=O)[O-])cc1` [Compound 3d, N′-(4-Nitrobenzylidene)-2-[(5-chlorobenzoxazol-2-yl)thio]acetohydrazide] here?
The IC50 was greater than 500 µM.

And the IC50 [2]?
The IC50 was greater than 500 µM.

And the melting point?
Its melting point is 237 to 239 °C.

What does the source list for `O=C(CSc1nc2cc(Cl)ccc2o1)NN=Cc1ccc(N2CCCCC2)cc1` [Compound 3e, N′-[4-(Piperidin-1-yl)benzylidene]-2-[(5-chlorobenzoxazol-2-yl)thio]acetohydrazide]?
early apoptosis (%) (A549 cells): 3.26%; late apoptosis (%) (A549 cells): 1.76%; necrosis (%) (A549 cells): 3.79%; IC50 (Akt): 106 ± 53.7 µM; IC50 ([1]; Homo sapiens, A549, mean ± SD): 176 ± 56.5 µM; IC50 [2]: > 500 µM

Which results are given for `O=C(CSc1nc2cc(Cl)ccc2o1)NN=Cc1ccc(N2CCOCC2)cc1` [Compound 3f, N′-[4-(Morpholin-4-yl)benzylidene]-2-[(5-chlorobenzoxazol-2-yl)thio]acetohydrazide]?
IC50 ([1]; Homo sapiens, A549, mean ± SD): 251 ± 45.9 µM; IC50 [2]: > 500 µM; melting point: 209 to 210 °C

With `CN1CCN(c2ccc(C=NNC(=O)CSc3nc4cc(Cl)ccc4o3)cc2)CC1` [Compound 3g, N′-[4-(4-Methylpiperazin-1-yl)benzylidene]-2-[(5-chlorobenzoxazol-2-yl)thio]acetohydrazide] as the compound, how does the “early apoptosis (%)” value (A549 cells) read?
The value was 7.13%.

And the “late apoptosis (%)” value (A549 cells)?
The value was 12.17%.

And the “necrosis (%)” value (A549 cells)?
Its value is 0.78%.

And the “inhibitory effect on Akt (in words)” value (Akt; A549 cells, 11.65, 23.30 and 46.60 μM)?
The value was “did not exert any inhibitory effect”.

And the IC50 ([1]; Homo sapiens, A549, mean ± SD)?
The IC50 was 46.6 ± 6.15 µM.

What about the IC50 [2] of the same compound?
The IC50 was 277 ± 28.9 µM.

And the melting point?
The melting point was 178 to 179 °C.

With `O=C(CSc1nc2cc(Cl)ccc2o1)NN=Cc1ccc(N2CCCC2)cc1` [Compound 3h, N′-[4-(Pyrrolidin-1-yl)benzylidene]-2-[(5-chlorobenzoxazol-2-yl)thio]acetohydrazide] as the compound, how does the IC50 ([1]; Homo sapiens, A549, mean ± SD) read?
The IC50 was greater than 500 µM.

And the IC50 [2]?
The IC50 was greater than 500 µM.

And the melting point?
The melting point was 206 to 207 °C.

Which results are given for `O=C(CSc1nc2cc(Cl)ccc2o1)NN=Cc1ccc(-n2ccnc2)cc1` [Compound 3i, N′-[4-(1H-Imidazol-1-yl)benzylidene]-2-[(5-chlorobenzoxazol-2-yl)thio]acetohydrazide]?
early apoptosis (%) (A549 cells): 2.70%; late apoptosis (%) (A549 cells): 6.04%; necrosis (%) (A549 cells): 3.51%; IC50 (Akt): 69.5 ± 1.48 µM; IC50 ([1]; Homo sapiens, A549, mean ± SD): 83.6 ± 7.3 µM; IC50 [2]: > 500 µM; melting point: 229 to 231 °C

What does the source list for `O=C(CSc1nc2cc(Cl)ccc2o1)NN=Cc1ccc(-n2cncn2)cc1` [Compound 3j, N′-[4-(1H-1,2,4-Triazol-1-yl)benzylidene]-2-[(5-chlorobenzoxazol-2-yl)thio]acetohydrazide]?
IC50 ([1]; Homo sapiens, A549, mean ± SD): > 500 µM; IC50 [2]: > 500 µM; melting point: 256 to 257 °C

Which IC50 (Akt) does the source give for `CCn1c(-c2nonc2N)nc2c(C#CC(C)(C)O)ncc(OC[C@H]3CCCNC3)c21` [GSK690693, reference compound] here?
The IC50 was 5.93 ± 1.2 µM.
